Patent US20260265280A1, “Prevention/Treatment of Ischemic Reperfusion Injury” (Rev Therapeutics, priority 2023, published 2026)
≈ marks a conversion by molar mass, not a printed value. Where “and” joins values, the source holds several entries; their conditions need not be identical. Identical values can stand only once. Marks after values point to notes of the source that are not given here.

Experiments:
[1] = In vivo rat pharmacokinetic studies (cleavage of compounds into compound Z); conditions: for Compound Z Present in Plasma at 2 hr After i.p. dose: i.p. dose of compound Qx
Procedure: Rat pharmacokinetic study samples were used for PK characterization. Male Sprague-Dawley rats weighing 150-300 g were intraperitoneal (ip), intravenous (i.v.) dosed formulated in PBS, pH 7.4. The blood samples at several times post dosing were collected and advanced to plasma preparation with K2EDTA as an anticoagulant.
The blank plasma samples used for the PK characterization control were prepared from undosed rat groups. After IV administration, the amount of parent compound remaining at 0.5 hours after dosing was used as a measure of the cleavage rate. After IP administration, the amount of parent compound remaining at 2 hours after dosing was used as a measure of the cleavage rate. We sought compounds with >90% cleavage.

[2] = test system: kidney ischemia-reperfusion injury; test: Rat bilateral short-warm kidney ischemia-reperfusion injury (IRI / AKI) system; type: in vivo, Male outbred Sprague-Dawley rats; conditions: oral 103 mg/kg
Procedure: Brief description of AKI Study: The study examined rats given oral compound Q8 three times at −1 hour, +10 hours, and 24 h post-lesion, or nine times over four days, at −1 hr, +10 hours and every morning and evening. The dose chosen was 103 mg/kg (0.134 mmol/kg). Control groups include a sham operation group receiving drug vehicle, peritoneum open but no ligature application to the kidney artery. A vehicle group in which the artery ligature was applied served as the lesion group. […] This chosen amount is also between the IC95 and the IC50 inhibition of Jnk activity in cell extracts and human PBMCs (Krenitsky et al. Bioorganic & Medicinal Chemistry Letters, 22(3), pp. 1433-1438). It is also similar to the oral Cavg exposure of compound Z at 60 mg/kg, which is an effective dose of compound Z in rat models of AKI (Grynberg et al. Am J Pathol 191:817-828, 2021).
Rat bilateral short-warm kidney ischemia-reperfusion injury (“IRI”) system: Male outbred Sprague-Dawley rats (approximately 300 g from the Monash Animal Research Platform), six/group, were anesthetized using ketamine/xylazine, and surgery performed with both renal pedicles clamped for 25 minutes (ischemia) then released (reperfusion) as previously described (Grynberg et al. Am J Pathol 191:817-828, 2021). […]
Staining used rabbit monoclonal antibodies recognizing collagen I (E8F4L, 1 in 400 dilutions; Cell Signaling Technology, Danvers, MA, USA), followed by biotinylated […] (BA-400, 1 in 500 dilutions; Thermo Fisher, Waltham, MA, USA), and the VECTASTAIN® Elite® ABC-HRP Kit (PK-6100). The interstitial collagen I deposition area was assessed in the outer medulla and cortex by image analysis, avoiding medium and large arteries, using cellSens software V1.18 (Olympus, Notting Hill, Victoria, Australia) as previously described (Leong et al. Toxins 13:700, 2021). […]
Statistical Analysis: Data are shown as means±1 SD. Data were analyzed by one-way analysis of variance with the Tukey multiple comparison tests using GraphPad Prism 9.0 software (GraphPad Software, San Diego, CA).

[3] = Thermodynamic solubility assay (shake flask, HPLC-UV) in PBS; type: physicochemical; conditions: for solubility thermodynamic at 24 h: 25 °C, aqueous buffer, thermodynamic from solid
Procedure: Solubility Study: The thermodynamic solubility assay employed was the shake flask method followed by HPLC analysis. The method prepared a saturated solution of the compound, followed by an assay of the solution using HPLC and UV detection. […] About 18 mg compound powder was weighed and placed in a 2 mL glass vial, then PBS buffer was introduced into the vial to obtain a 30-60 mg/mL target concentration. This solution was vortexed for 2 minutes. The solutions were incubated and shook on an orbital shaker for 24 hr at room temperature (25±2° C.). About 500 μL solubility solution was transferred into a new MultiScreen filter plate (Membrane of polycarbonate), filtered by millipore vacuum manifold, and collected in the filtrate as the TS solution. The filtrate was diluted with PBS buffer by a factor of 20 fold to make it diluent. Three UV standard solutions (20, 200, 2000 μg/mL) were injected into HPLC from low to high concentration, followed by testing of the diluent. Testing samples were injected in duplicate. The filtrate was analyzed by HPLC equipped with UV, and the solubility was calculated based on acquired peak areas and dilution factors with a standard external method.

[4] = test system: kidney ischemia-reperfusion injury; conditions: oral; Grynberg et al.; cited from earlier work
cJun phosphorylation = conditions: human skin; cited from earlier work
[5] = PBS buffer, PBS pH 7.4, shaken 24 hr at room temperature (25±2° C.)
[6] = studied at 1 mg/kg in PBS, linearly scaled to 2 mg/kg equivalent dose
[7] = PBS pH 7.4, shaken 24 hr at room temperature (25±2° C.)

O=P([O-])([O-])OCn1/c(=N\c2c(F)cc(F)cc2F)n([C@H]2CCOC2)c2nc(NC3CCC(O)CC3)ncc21.[Na+].[Na+] (stereo partly drawn) [Compound Q8, [[(8Z)-2-[(4-hydroxycyclohexyl)amino]-9-[(3S)-tetrahydrofuran-3-yl]-8-(2,4,6-trifluorophenyl)imino-purin-7-yl]methoxy-sodiooxy-phosphoryl]oxysodium]
Compound Qx Present in Plasma at 2 hr After i.p. dose ([1]; studied at 29.8 mg/kg in PBS, linearly scaled to 2 mg/kg equivalent dose): 12^# ng/mL | concentration at 0.5 h ([1]; male, Sprague-Dawley, plasma, intravenous, 1 mg/kg): 21 ng/mL | reduction of fibrosis component Coll histological staining ([2]; D21 post-lesion): 73% | reduction of tubular damage ([2]; Day 7 post-lesion, PAS stained sections, outer medulla): 65% | reduction of serum/plasma creatinine levels (kidney dysfunction) ([2]; three doses or nine doses over four days, vs. 1D vehicle): 87-88% | improvement in solubility over known compound Z ([3]; PBS): 751 fold | solubility thermodynamic at 24 h [3, 5]: 45600 µg/mL

O=P([O-])([O-])OP(=O)([O-])OC1CCC(Nc2ncc3nc(Nc4c(F)cc(F)cc4F)n([C@H]4CCOC4)c3n2)CC1.[Na+].[Na+].[Na+] (stereo partly drawn) [Compound Q9, [Disodiooxyphosphoryloxy-[4-[[9-[(3S)-tetrahydrofuran-3-yl]-8-(2,4,6-trifluoroanilino)purin-2-yl]amino]cyclohexoxy]phosphoryl]oxysodium]
Compound Qx Present in Plasma at 2 hr After i.p. dose ([1]; studied at 2 mg/kg in PBS): BQL | Compound Qx Present in Plasma at 0.5 hr After i.v. dose [1, 6]: BQL | solubility thermodynamic at 24 h [3, 7]: 19400 µg/mL

CC(=O)O[C@H]1CC[C@H](Nc2ncc3nc(Nc4c(F)cc(F)cc4F)n([C@H]4CCOC4)c3n2)CC1 [Compound Q10, [4-[[9-[(3S)-Tetrahydrofuran-3-yl]-8-(2,4,6-trifluoroanilino)purin-2-yl]amino]cyclohexyl] acetate]
solubility thermodynamic at 24 h [3, 5]: 75.2 µg/mL

CCOC(=O)n1/c(=N\c2c(F)cc(F)cc2F)n([C@H]2CCOC2)c2nc(N[C@H]3CC[C@H](O)CC3)ncc21 [Compound Q11]
solubility thermodynamic at 24 h [3, 5]: < 20 µg/mL

C[N+](C)(C)CCOC(=O)O[C@H]1CC[C@H](Nc2ncc3nc(Nc4c(F)cc(F)cc4F)n([C@H]4CCOC4)c3n2)CC1 [Compound Q12, trimethyl-[2-[4-[[9-[(3S)-tetrahydrofuran-3-yl]-8-(2,4,6-trifluoroanilino)purin-2-yl]amino]cyclohexoxy]carbonyloxyethyl]ammonium]
concentration at 2 h ([1]; male, Sprague-Dawley, plasma, ip, 2 mg/kg): 214 ng/mL | solubility thermodynamic at 24 h [3, 5]: 29600 µg/mL

CCOC(=O)OC1CCC(Nc2ncc3nc(Nc4c(F)cc(F)cc4F)n([C@H]4CCOC4)c3n2)CC1 (stereo partly drawn) [Compound Q13, Ethyl [4-[[9-[(3S)-tetrahydrofuran-3-yl]-8-(2,4,6-trifluoroanilino)purin-2-yl]amino]cyclohexyl] carbonate]
solubility thermodynamic at 24 h [3, 5]: < 20 µg/mL

CN(C)C(=O)O[C@H]1CC[C@H](Nc2ncc3nc(Nc4c(F)cc(F)cc4F)n([C@H]4CCOC4)c3n2)CC1 [Compound Q14, [4-[[9-[(3S)-tetrahydrofuran-3-yl]-8-(2,4,6-trifluoroanilino)purin-2-yl]amino]cyclohexyl] N,N-dimethylcarbamate]
solubility thermodynamic at 24 h [3, 5]: < 20 µg/mL

CC(=O)OCn1/c(=N\c2c(F)cc(F)cc2F)n([C@H]2CCOC2)c2nc(N[C@H]3CC[C@H](O)CC3)ncc21 [Compound Q16, [(8Z)-2-[(4-hydroxycyclohexyl)amino]-9-[(3S)-tetrahydrofuran-3-yl]-8-(2,4,6-trifluorophenyl)imino-purin-7-yl]methyl acetate]
solubility thermodynamic at 24 h [3, 5]: 114 µg/mL

O[C@H]1CC[C@H](Nc2ncc3nc(Nc4c(F)cc(F)cc4F)n([C@H]4CCOC4)c3n2)CC1 [Z, 4-[[9-[(3S)-tetrahydrofuran-3-yl]-8-(2,4,6-trifluoroanilino)purin-2-yl]amino]cyclohexanol]
effective dose in rat models of AKI [4]: 60 mg/kg | plasma concentration that achieved efficacy (suppression of cJun phosphorylation) (cJun phosphorylation): 3.4 uM and 1560 ng/mL | solubility thermodynamic at 24 h [3, 5]: 60.6 µg/mL (≈ 135 µM)

Trimethyl-[2-oxo-2-[4-[[9-[(3S)-tetrahydrofuran-3-yl]-8-(2,4,6-trifluoroanilino)purin-2-yl]amino]cyclohexoxy]ethyl]ammonium [Compound Q15]
Compound Z Present in Plasma at 2 hr After i.p. dose ([1]; studied at 2 mg/kg in PBS): 26.5 ng/mL | Compound Qx Present in Plasma at 2 hr After i.p. dose ([1]; studied at 2 mg/kg in PBS): 125 ng/mL | Thermodynamic Solubility in PBS [3, 7]: 17.34 mg/mL

[4-[[9-[(3S)-Tetrahydro furan-3-yl]-8-(2,4,6-trifluoroanilino)purin-2-yl]amino]cyclohexyl] disodium phosphate [Compound Q7]
compound still present at 2 hrs post-dosing ([1]; 2 hr post-dosing): 30% | Compound Z Present in Plasma at 2 hr After i.p. dose ([1]; studied at 2 mg/kg in PBS): 83.5 ng/mL | Compound Qx Present in Plasma at 2 hr After i.p. dose ([1]; studied at 2 mg/kg in PBS): 36 ng/mL | Compound Z Present in Plasma at 0.5 hr After i.v. dose ([1]; i.v. dose of compound Qx, studied at 1 mg/kg in PBS, linearly scaled to 2 mg/kg equivalent dose): 232 ng/mL | Compound Qx Present in Plasma at 0.5 hr After i.v. dose [1, 6]: 13 ng/mL
